Measurements taken from patent publication US20210015881A1 (priority 2016, published 2021).

How the values were obtained:
aconitic arrhythmia = details: for effect on baseline heart rate and contraction (intervals R-R, PQ, QT): i.v. at doses that provide antiarrhythmic effect in 50% of rats; for antiarrhythmic activity and range of antiarrhythmic action, comparison: active doses 5-10 minutes prior to i.v. aconitine
Protocol: The study was conducted in anesthetized white outbred rats. The objective of the experiment was to study the efficiency of intravenous administration of the studied substances and known antiarrhythmic agents in the model of aconitic arrhythmia in anesthetized rats.
The studied substances and medicinal products for comparison were administered in active doses 5-10 minutes prior to intravenous administration of aconitine.

[1] = system: cardiac arrhythmia caused by barium chloride; test: Cardiac arrhythmia caused by barium chloride; assay type: in vivo, rats
Protocol: The study was conducted in 60 white outbred rats. […] Out of 15 control animals, which received barium chloride at a dose of 20 mg/kg, […] of the rats died.
Rhythm disturbances were mostly of a ventricular type, in the form of ventricular bigeminy, trigeminy, group extrasystoles, transient ventricular standstill, flutter and ventricular fibrillation. In addition, various types of conduction disorders and increased ST segment above contours were observed.
Intravenous administration of the studied substances at doses of 0.05-0.1 mg/kg 10 min prior to the injection of barium chloride prevented the development of arrhythmias in 60-90% of rats. Antiarrhythmic effect of the studied substances combines with antitoxic effect against lethality from barium chloride.

corneal reflex = test: Terminal (topical) anesthesia of the rabbit eye, method of Rainier-Valet; assay type: in vivo, rabbits
Protocol: The local anesthetic effect of the studied substances was investigated in 10 rabbits. The effect on terminal anesthesia was investigated by the method of Rainier-Valet, by identifying the corneal reflex to mechanical irritation every 5-10 min after instillation of 2 drops of 0.1%-0.25%-0.5% solutions of the studied substances.
(§1) The time of anesthesia onset, its depth and duration were determined. Activity of the studied substances at topical anesthesia was compared to dicaine; at infiltration anesthesia-to novocaine.

[2] = system: threshold of pain irritation; test: Infiltration anesthesia in rabbits, method of Bullbring-Vida; assay type: in vivo; details: 0.5% solution
Protocol: The ability of the medicinal product to cause infiltration anesthesia was studied in rabbits by the method of Bullbring-Vida (pain method).
as §1

CCOC(=O)Nc1ccc2c(c1)N(C(=O)CCN1CCOCC1)c1ccccc1S2 [Etmozin]
effect on baseline heart rate and contraction (intervals R-R, PQ, QT) (aconitic arrhythmia): inhibition of the baseline heart rate and contraction
antiarrhythmic activity and range of antiarrhythmic action, comparison (aconitic arrhythmia; i.v.): most efficient among the reference antiarrhythmic agents

CCN(CC)CC(=O)Nc1c(C)cccc1C [Lidocaine]
duration of effect, comparison (aconitic arrhythmia; i.v., active doses prior to aconitine): shortest effect

CCN(CC)CCNC(=O)c1ccc(N)cc1 [Procainamide]
antiarrhythmic and antitoxic activity, comparison ([1]; barium chloride model of ventricular type arrhythmia): weakest antiarrhythmic and antitoxic activity

C=C[C@H]1C[N@@]2CC[C@H]1C[C@@H]2[C@@H](O)c1ccnc2ccc(OC)cc12 [Quinidine]
effect on baseline heart rate and contraction (intervals R-R, PQ, QT) (aconitic arrhythmia): inhibition of the baseline heart rate and contraction
antiarrhythmic and antitoxic effect compared with substances 1-9 at 0.05 mg/kg and 0.1 mg/kg ([1]; 5 mg/kg and 10 mg/kg): approximately similar

COc1ccc(CCN(C)CCCC(C#N)(c2ccc(OC)c(OC)c2)C(C)C)cc1OC (centres unmarked) [Verapamil]
antiarrhythmic activity and range of antiarrhythmic action, comparison (aconitic arrhythmia; i.v.): least effective

CCCCNc1ccc(C(=O)OCCN(C)C)cc1 [dicaine]
average duration of terminal anesthesia of the rabbit eye (corneal reflex; 0.1%): 37 min
average duration of terminal anesthesia of the rabbit eye (corneal reflex; 0.5%): 52 min
onset of terminal anesthesia of the rabbit eye (corneal reflex; concentrations of 0.1% and 0.5%): 1 to 2 min

CCN(CC)CCOC(=O)c1ccc(N)cc1 [novocaine]
duration of local anesthetic effect [2]: about 90 min
